Results as given in the NIST ThermoML archive (doi:10.1021/acs.jced.5b00613).

Assay: xn = mol fraction of the nth substance listed
Conditions: Liquid, Vibrating tube method

CCCCCCCCCCCCCCCC [hexadecane] + CCCCCC
mass density [kg/m3]
Conditions	100 kPa	1000 kPa	5000 kPa	10000 kPa	20000 kPa	30000 kPa	40000 kPa	50000 kPa	60000 kPa
298.15 K, x2 = 0.1985	759.7	760.3	763	766.3	772.3	777.9	783.2	788.1	–
298.15 K, x2 = 0.4136	744.4	745.1	748	751.4	757.8	763.7	769.2	774.4	779.5
298.15 K, x2 = 0.5007	736.7	737.5	740.4	744	750.4	756.5	762.2	767.5	772.6
298.15 K, x2 = 0.5966	726.9	727.5	730.6	734.3	741.1	747.4	753.2	758.6	763.9
298.15 K, x2 = 0.7928	700.2	700.8	704.3	708.5	715.9	722.7	729	734.8	740.4
323.15 K, x2 = 0.1985	742.3	743.2	746.2	749.9	756.7	763	768.7	774.2	779.4
323.15 K, x2 = 0.4136	726.2	727.1	730.4	734.4	741.6	748.3	754.3	760.1	765.4
323.15 K, x2 = 0.5007	717.7	719.1	722.6	726.7	734.1	741	747.2	753	758.5
323.15 K, x2 = 0.5966	707.8	708.9	712.4	716.7	724.4	731.5	737.9	744	749.7
323.15 K, x2 = 0.7928	679.1	680.6	684.7	689.6	698.3	706.2	713.2	719.7	725.7
348.15 K, x2 = 0.1985	724.4	725.2	728.7	732.9	740.6	747.6	754	760	–
348.15 K, x2 = 0.4136	708	709	712.8	717.3	725.6	733	739.7	746	–
348.15 K, x2 = 0.5007	698.3	700.1	704	708.6	717.2	724.9	731.8	738.2	–
348.15 K, x2 = 0.5966	687.2	689.3	693.5	698.5	707.5	715.4	722.6	729.3	–
348.15 K, x2 = 0.7928	658.2	659.5	664.5	670.2	680.3	689.2	697.1	–	–
